Assays:
[1] = system: cocklebur; experiment: Test E preemergence; assay type: in vivo, Xanthium strumarium; settings: 125 g ai/ha, scale 0 to 100, 0 no effect, 100 complete control
Outline: (§1)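 Response was scored visually on a 0-100 scale (100 = complete control) versus controls after 14 to 21 days in the greenhouse. Test chemicals, formulated with surfactant in a non-phytotoxic solvent mixture, had been applied preemergence to seeds in silt loam soil or postemergence to 1- to 4-leaf plants in potting medium.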

[2] = system: oilseed rape; experiment: Test D preemergence; assay type: in vivo, Brassica napus; settings: Brassica napus, pre-emergence
Outline: (§2)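 Species were sown in silt loam for preemergence treatment, or grown in peat-based medium to the 1–4-leaf stage (2–18 cm) for postemergence sprays. Test chemicals were formulated in a non-phytotoxic solvent mixture with surfactant. After 7–21 days in a controlled environment, plants were rated visually against controls on a 0 (no effect) to 100 (complete control) scale.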

[3] = system: speedwell; experiment: Test D preemergence; assay type: in vivo, Veronica persica; settings: Veronica persica, pre-emergence
Outline: as §2

[4] = system: barnyardgrass; experiment: Test E postemergence; assay type: in vivo, Echinochloa crus-galli; settings: Echinochloa crus-galli, post-emergence, read-out: Plant response rating, Barnyardgrass
Outline: as §1

[5] = system: soybean; experiment: Test E postemergence; assay type: in vivo, Glycine max; settings: Glycine max, post-emergence
Outline: as §1

[6] = system: field violet; experiment: Test D preemergence; assay type: in vivo, Viola arvensis; settings: Viola arvensis, pre-emergence
Outline: as §2

[7] = system: field violet; experiment: Test D postemergence; assay type: in vivo, Viola arvensis; settings: Viola arvensis, post-emergence
Outline: as §2

[8] = system: bluegrass; experiment: Test D preemergence; assay type: in vivo, Poa annua; settings: Poa annua, pre-emergence
Outline: as §2

[9] = system: canarygrass; experiment: Test D postemergence; assay type: in vivo, Phalaris minor; settings: Phalaris minor, post-emergence
Outline: as §2

[10] = system: winter wheat; experiment: Test D preemergence; assay type: in vivo, Triticum aestivum; settings: Triticum aestivum, pre-emergence
Outline: as §2

[11] = system: spring wheat; experiment: Test D preemergence; assay type: in vivo, Triticum aestivum; settings: Triticum aestivum, pre-emergence
Outline: as §2

[12] = system: pigweed; experiment: Test D postemergence; assay type: in vivo, Amaranthus retroflexus; settings: Amaranthus retroflexus, post-emergence
Outline: as §2

[13] = system: Brazilian crabgrass; experiment: Test E postemergence; assay type: in vivo, Digitaria horizontalis; settings: Digitaria horizontalis, post-emergence, read-out: Plant response rating, Crabgrass, Brazil
Outline: as §1

[14] = system: kochia; experiment: Test D postemergence; assay type: in vivo, Kochia scoparia; settings: Bassia scoparia, post-emergence
Outline: as §2

[15] = Postemergence, 31 g ai/ha, scale 0 to 100
[16] = Postemergence, 62 g ai/ha, scale 0 to 100
[17] = Postemergence, 125 g ai/ha, scale 0 to 100
[18] = postemergence, 8 g ai/ha, scale 0 to 100, 0 no effect, 100 complete control
[19] = postemergence, 16 g ai/ha, scale 0 to 100, 0 no effect, 100 complete control

Clc1cnc(Oc2ccccc2-n2cc(Br)cn2)nc1 [Compound 7, 2-[2-(4-bromo-1H-pyrazol-1-yl)phenoxy]-5-chloropyrimidine]
Plant response rating, Cocklebur [1]: 0
plant injury at 16 g/ha ([2]; 16 g ai/ha, scale 0 (no effect) to 100 (complete control), read-out: Plant response rating, Oilseed Rape): 0%
plant injury at 31 g/ha ([2]; 31 g ai/ha, scale 0-100, read-out: Plant response rating, Oilseed Rape): 10%
plant injury at 62 g/ha ([2]; 62 g ai/ha, scale 0-100, read-out: Plant response rating, Oilseed Rape): 25%
plant injury at 125 g/ha ([2]; 125 g ai/ha, scale 0-100, read-out: Plant response rating, Oilseed Rape): 100%
plant injury at 250 g/ha ([2]; 250 g ai/ha, scale 0-100, read-out: Plant response rating, Oilseed Rape): 100%
pest or weed control at 16 g/ha ([3]; 16 g ai/ha, scale 0 (no effect) to 100 (complete control), read-out: Plant response rating, Speedwell): 20%
pest or weed control at 31 g/ha ([3]; 31 g ai/ha, scale 0 (no effect) to 100 (complete control), read-out: Plant response rating, Speedwell): 50%
pest or weed control at 62 g/ha ([3]; 62 g ai/ha, scale 0-100, read-out: Plant response rating, Speedwell): 100%
pest or weed control at 125 g/ha ([3]; 125 g ai/ha, scale 0-100, read-out: Plant response rating, Speedwell): 100%
pest or weed control at 250 g/ha ([3]; 250 g ai/ha, scale 0-100, read-out: Plant response rating, Speedwell): 100%
pest or weed control at 31 g/ha [4, 15]: 0%
pest or weed control at 62 g/ha [4, 16]: 10%
pest or weed control at 125 g/ha [4, 17]: 10%
pest or weed control at 8 g/ha [4, 18]: 0%
pest or weed control at 16 g/ha [4, 19]: 0%
plant response (crop injury) rating, soybean, 0-100 scale at 31 g/ha [5, 15]: 90%
plant response (crop injury) rating, soybean, 0-100 scale at 62 g/ha [5, 16]: 98%
plant response (crop injury) rating, soybean, 0-100 scale at 125 g/ha [5, 17]: 98%
plant response (crop injury) rating, soybean, 0-100 scale at 8 g/ha [5, 18]: 60%
plant response (crop injury) rating, soybean, 0-100 scale at 16 g/ha [5, 19]: 80%
pest or weed control at 16 g/ha ([6]; 16 g ai/ha, scale 0 (no effect) to 100 (complete control), read-out: Plant response rating, Field Violet): 0%
pest or weed control at 31 g/ha ([6]; 31 g ai/ha, scale 0-100, read-out: Plant response rating, Field Violet): 0%
pest or weed control at 62 g/ha ([6]; 62 g ai/ha, scale 0-100, read-out: Plant response rating, Field Violet): 20%
pest or weed control at 125 g/ha ([6]; 125 g ai/ha, scale 0-100, read-out: Plant response rating, Field Violet): 70%
pest or weed control at 250 g/ha ([6]; 250 g ai/ha, scale 0-100, read-out: Plant response rating, Field Violet): 80%
pest or weed control at 16 g/ha ([7]; 16 g ai/ha, scale 0-100, read-out: Plant response rating, Field Violet): 10%
pest or weed control at 31 g/ha ([7]; 31 g ai/ha, scale 0 to 100 (0 no effect, 100 complete control), read-out: Plant response rating, Field Violet): 20%
pest or weed control at 62 g/ha ([7]; 62 g ai/ha, scale 0 to 100 (0 no effect, 100 complete control), read-out: Plant response rating, Field Violet): 70%
pest or weed control at 125 g/ha ([7]; 125 g ai/ha, scale 0 to 100 (0 no effect, 100 complete control), read-out: Plant response rating, Field Violet): 70%
pest or weed control at 250 g/ha ([7]; 250 g ai/ha, scale 0 to 100 (0 no effect, 100 complete control), read-out: Plant response rating, Field Violet): 70%
pest or weed control at 16 g/ha ([8]; 16 g ai/ha, scale 0 (no effect) to 100 (complete control), read-out: Plant response rating, Bluegrass): 0%
pest or weed control at 31 g/ha ([8]; 31 g ai/ha, scale 0-100, read-out: Plant response rating, Bluegrass): 0%
pest or weed control at 62 g/ha ([8]; 62 g ai/ha, scale 0-100, read-out: Plant response rating, Bluegrass): 0%
pest or weed control at 125 g/ha ([8]; 125 g ai/ha, scale 0-100, read-out: Plant response rating, Bluegrass): 30%
pest or weed control at 250 g/ha ([8]; 250 g ai/ha, scale 0-100, read-out: Plant response rating, Bluegrass): 40%
pest or weed control at 16 g/ha ([9]; 16 g ai/ha, scale 0-100, read-out: Plant response rating, Canarygrass): 0%
pest or weed control at 31 g/ha ([9]; 31 g ai/ha, scale 0 to 100 (0 no effect, 100 complete control), read-out: Plant response rating, Canarygrass): 0%
pest or weed control at 62 g/ha ([9]; 62 g ai/ha, scale 0 to 100 (0 no effect, 100 complete control), read-out: Plant response rating, Canarygrass): 5%
pest or weed control at 125 g/ha ([9]; 125 g ai/ha, scale 0 to 100 (0 no effect, 100 complete control), read-out: Plant response rating, Canarygrass): 10%
pest or weed control at 250 g/ha ([9]; 250 g ai/ha, scale 0 to 100 (0 no effect, 100 complete control), read-out: Plant response rating, Canarygrass): 25%
plant injury at 16 g/ha ([10]; 16 g ai/ha, scale 0 (no effect) to 100 (complete control), read-out: Plant response rating, Wheat, Winter): 0%
plant injury at 31 g/ha ([10]; 31 g ai/ha, scale 0 (no effect) to 100 (complete control), read-out: Plant response rating, Wheat, Winter): 0%
plant injury at 62 g/ha ([10]; 62 g ai/ha, scale 0-100, read-out: Plant response rating, Wheat, Winter): 0%
plant injury at 125 g/ha ([10]; 125 g ai/ha, scale 0-100, read-out: Plant response rating, Wheat, Winter): 5%
plant injury at 250 g/ha ([10]; 250 g ai/ha, scale 0-100, read-out: Plant response rating, Wheat, Winter): 10%
plant injury at 16 g/ha ([11]; 16 g ai/ha, scale 0 (no effect) to 100 (complete control), read-out: Plant response rating, Wheat, Spring): 0%
plant injury at 31 g/ha ([11]; 31 g ai/ha, scale 0 (no effect) to 100 (complete control), read-out: Plant response rating, Wheat, Spring): 0%
plant injury at 62 g/ha ([11]; 62 g ai/ha, scale 0-100, read-out: Plant response rating, Wheat, Spring): 0%
plant injury at 125 g/ha ([11]; 125 g ai/ha, scale 0-100, read-out: Plant response rating, Wheat, Spring): 0%
plant injury at 250 g/ha ([11]; 250 g ai/ha, scale 0-100, read-out: Plant response rating, Wheat, Spring): 0%
pest or weed control at 16 g/ha ([12]; 16 g ai/ha, scale 0-100, read-out: Plant response rating, Pigweed): 70%
pest or weed control at 31 g/ha ([12]; 31 g ai/ha, scale 0 to 100 (0 no effect, 100 complete control), read-out: Plant response rating, Pigweed): 90%
pest or weed control at 62 g/ha ([12]; 62 g ai/ha, scale 0 to 100 (0 no effect, 100 complete control), read-out: Plant response rating, Pigweed): 100%
pest or weed control at 125 g/ha ([12]; 125 g ai/ha, scale 0 to 100 (0 no effect, 100 complete control), read-out: Plant response rating, Pigweed): 100%
pest or weed control at 250 g/ha ([12]; 250 g ai/ha, scale 0 to 100 (0 no effect, 100 complete control), read-out: Plant response rating, Pigweed): 100%
pest or weed control at 31 g/ha [13, 15]: 10%
pest or weed control at 62 g/ha [13, 16]: 20%
pest or weed control at 125 g/ha [13, 17]: 30%
pest or weed control at 8 g/ha [13, 18]: 0%
pest or weed control at 16 g/ha [13, 19]: 0%
pest or weed control at 16 g/ha ([14]; 16 g ai/ha, scale 0-100, read-out: Plant response rating, Kochia): 30%
pest or weed control at 31 g/ha ([14]; 31 g ai/ha, scale 0 to 100 (0 no effect, 100 complete control), read-out: Plant response rating, Kochia): 70%
pest or weed control at 62 g/ha ([14]; 62 g ai/ha, scale 0 to 100 (0 no effect, 100 complete control), read-out: Plant response rating, Kochia): 100%
pest or weed control at 125 g/ha ([14]; 125 g ai/ha, scale 0 to 100 (0 no effect, 100 complete control), read-out: Plant response rating, Kochia): 100%
pest or weed control at 250 g/ha ([14]; 250 g ai/ha, scale 0 to 100 (0 no effect, 100 complete control), read-out: Plant response rating, Kochia): 100%

Reference: patent publication US9695155B2, “Herbicidal substituted pyrimidinyloxy benzene compounds” (E. I. DU PONT DE NEMOURS AND COMPANY, priority 2013, dated 2017)
